Like-named read-outs stand apart in the source and are kept apart here.
Tests used:
[1] = tested on: Pseudomonas aeruginosa MB9798 vs MB9799
In short: (§1)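 Steps: add fixed imipenem and/or ceftazidime (usually CLSI breakpoint) and fixed AmpC-directed class A/C inhibitor to microbroth MIC wells; titrate MBL inhibitor; record concentration regaining susceptibility for each PAO1-derived strain; divide efflux+ by efflux− value.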

[2] = tested on: Escherichia coli expressing NDM-1 (CLB30005, CLB30016); assay type: cell-based; details: with imipenem 1 μg/ml; for Escherichia coli expressing NDM-1 (CLB30016) MITC95: 95% inhibition of bacterial growth; for Escherichia coli MITC95: NDM-1 strain, 95% inhibition of growth
In short: (§2)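 Imipenem 1 μg/ml + inhibitor; MBL-expressing clinical strains in 1.1×CAMHB, inoculum from saline suspension diluted 1:100; 35° C, 22–24 h; absorbance read-out.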

[3] = tested on: Klebsiella pneumoniae expressing VIM-1 (IHMA599644); assay type: cell-based; details: for Klebsiella pneumoniae expressing VIM-1 (IHMA599644) MITC95: with imipenem 1 μg/ml, 95% inhibition of bacterial growth; for Klebsiella pneumoniae MITC95: VIM-1 strain IHMA599644, with imipenem 1 μg/ml, 95% inhibition of growth
In short: as §2

[4] = tested on: Serratia marcescens expressing IMP-1 (CL5741); assay type: cell-based; details: for Serratia marcescens expressing IMP-1 (CL5741) MITC95: with imipenem 1 μg/ml, 95% inhibition of bacterial growth; for Serratia marcescens MITC95: IMP-1 strain CL5741, with imipenem 1 μg/ml, 95% inhibition of growth
In short: as §2

VIM-1 = VIM-1 (Pseudomonas aeruginosa (strain ATCC 15692 / DSM 22644 / CIP 104116 / JCM 14847 / LMG 12228 / 1C / PRS 101 / PAO1), UniProt A0A0F7KYQ8); experiment: biochemical; details: CCF2-FA substrate, 30 pM enzyme, 2 hours at 25° C.
In short: (§3)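 Class B activity is measured in the presence of compound by fluorescence with CCF2-FA after a 2-hour incubation at 25° C. IC50 is taken from a 4-parameter fit of semi-logarithmic dose-response data.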

IMP-1 = IMP-1 (Serratia marcescens, UniProt P52699); experiment: biochemical; assay type: biochemical; details: fluorescence assay, CCF2-FA substrate, 2 pM enzyme, 2 hours at 25° C.; read-out: IMP-1 IC50
In short: as §3

NDM-1 = NDM-1 (Klebsiella pneumoniae, UniProt C7C422); experiment: biochemical; assay type: biochemical; details: fluorescence assay, CCF2-FA substrate, 1 pM enzyme, 2 hours at 25° C.; read-out: NDM-1 IC50
In short: as §3

[5] = tested on: Pseudomonas aeruginosa efflux+ (MB9798), IMP-1; assay type: cell-based; set-up: Concentration of metallo-β-lactamase inhibitor which restores susceptibility of efflux + (MB9798) strain to imipenem: unit not given here; details: C, D serine β-lactamase inhibitor closely related to relebactam; for P. aeruginosa expressing IMP-1, efflux + (MB9798) MITC95: concentration restoring susceptibility to imipenem at 2 μg/mL in the presence of a class A
In short: as §1

[6] = tested on: Pseudomonas aeruginosa efflux− (MB9799), IMP-1; assay type: cell-based; details: C, D serine β-lactamase inhibitor closely related to relebactam; for P. aeruginosa expressing IMP-1, efflux − (MB9799) MITC95: concentration restoring susceptibility to imipenem at 2 μg/mL in the presence of a class A
In short: as §1

[7] = ratio MITC95 PA_9798/MITC95 PA_9799
[8] = fluorescence assay, read-out: VIM-1 IC50

Chain of IMP-1 (P52699 whole entry, looked up, species assumed): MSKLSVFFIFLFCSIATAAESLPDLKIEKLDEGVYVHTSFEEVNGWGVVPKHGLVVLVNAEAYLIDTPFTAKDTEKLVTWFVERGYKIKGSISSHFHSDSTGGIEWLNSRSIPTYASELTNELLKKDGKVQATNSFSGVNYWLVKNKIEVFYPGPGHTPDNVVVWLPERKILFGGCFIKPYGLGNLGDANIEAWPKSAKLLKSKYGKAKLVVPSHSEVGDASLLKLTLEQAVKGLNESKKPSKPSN
Chain of NDM-1 (C7C422 whole entry, looked up, species assumed): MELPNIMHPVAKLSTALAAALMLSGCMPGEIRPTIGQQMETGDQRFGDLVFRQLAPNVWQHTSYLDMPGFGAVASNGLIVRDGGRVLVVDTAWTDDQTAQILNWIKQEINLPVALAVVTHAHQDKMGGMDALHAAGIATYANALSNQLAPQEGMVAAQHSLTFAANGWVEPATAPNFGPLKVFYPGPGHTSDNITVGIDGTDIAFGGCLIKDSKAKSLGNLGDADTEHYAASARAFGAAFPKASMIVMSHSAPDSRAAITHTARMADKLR

SMILES | Efflux ratio [1, 7] | Escherichia coli expressing NDM-1 (CLB30016) MITC95 [2] [µM] | Klebsiella pneumoniae expressing VIM-1 (IHMA599644) MITC95 [3] [µM] | Serratia marcescens expressing IMP-1 (CL5741) MITC95 [4] [µM] | IC50 (VIM-1; [8]) [pM] | IC50 (IMP-1) [pM] | IC50 (NDM-1) [pM] | P. aeruginosa expressing IMP-1, efflux + (MB9798) MITC95 [5] [µM] | P. aeruginosa expressing IMP-1, efflux − (MB9799) MITC95 [6] [µM] | Efflux ratio ([1]; fold difference between efflux+ (MB9798) and efflux− (MB9799) strains, imipenem at 2 μg/mL) | Escherichia coli MITC95 [2] [µM] | Klebsiella pneumoniae MITC95 [3] [µM] | Serratia marcescens MITC95 [4] [µM] | Concentration of metallo-β-lactamase inhibitor which restores susceptibility of efflux + (MB9798) strain to imipenem ([5]; efflux+ MB9798, imipenem at 2 μg/mL, in the presence of a class A) | Concentration of metallo-β-lactamase inhibitor which restores susceptibility of efflux − (MB9799) strain to imipenem ([6]; efflux− MB9799, imipenem at 2 μg/mL, in the presence of a class A) | IC50 (VIM-1; VIM-1 IC50, fluorescence assay) [pM]
Nc1nc2c(-c3ccc(S(=O)(=O)NCC4(N)CCOCC4)c(S(N)(=O)=O)c3-c3nnn[nH]3)cccc2s1.O=CO [Example 115, 4-((4-(2-aminobenzo[d]thiazol-4-yl)-2-sulfamoyl-3-(1H-tetrazol-5-yl)phenylsulfonamido)methyl)tetrahydro-2H-pyran-4-aminium formate] | 1.00 | 3.125 | 6.25 | 3.125 | 388 | 324 | 60.2 | 3.125 | 3.125 | – | – | – | – | – | – | –
C[C@@H](N)CNS(=O)(=O)c1ccc(-c2ccc(N)nc2)c(-c2nn[nH]n2)c1S(N)(=O)=O [Example 480, (R)—N1-(2-aminopropyl)-4-(6-aminopyridin-3-yl)-3-(2H-tetrazol-5-yl) benzene-1,2-disulfonamide] | – | – | – | – | 249 | 320 | 227 | – | – | 1.00 | 0.1953 | 1.563 | 0.3906 | 0.7813 | 0.7813 | –
NC[C@H](N)CNS(=O)(=O)c1ccc(-c2cnc3cc[nH]c3c2)c(-c2nn[nH]n2)c1S(N)(=O)=O [Example 373, (S)-N1-(2,3-diaminopropyl)-4-(1H-pyrrolo[3,2-b]pyridin-6-yl)-3-(2H-tetrazol-5-yl)benzene-1,2-disulfonamide] | 1.00 | – | – | – | – | 495 | 51.6 | 1.563 | 1.563 | – | 0.3906 | 3.125 | 1.563 | – | – | 121
NCc1nc2c(-c3ccc(S(=O)(=O)N[C@@H]4CCNC4)c(S(N)(=O)=O)c3-c3nn[nH]n3)cccc2[nH]1 [Example 283, (R)-4-(2-(aminomethyl)-1H-benzo[d]imidazol-4-yl)-N1-(pyrrolidin-3-yl)-3-(2H-tetrazol-5-yl)benzene-1,2-disulfonamide] | 1.00 | – | – | – | 124 | 1200 | 72.1 | 0.7813 | 0.7813 | – | 0.7813 | 1.172 | 0.6836 | – | – | –
Nc1nc2c(-c3ccc(S(=O)(=O)NCC4COCCN4)c(S(N)(=O)=O)c3-c3nnn[nH]3)cccc2s1.O=C(O)C(F)(F)F (stereo not drawn) [Example 96, 3-((4-(2-aminobenzo[d]thiazol-4-yl)-2-sulfamoyl-3-(1H-tetrazol-5-yl)phenylsulfonamido)methyl)morpholin-4-ium 2,2,2-trifluoroacetate] | 1.00 | 6.25 | 6.25 | 3.125 | – | 402 | 75.7 | 3.125 | 3.125 | – | – | – | – | – | – | 299
NCc1nc2c(-c3ccc(S(=O)(=O)NC[C@H](O)CN)c(S(N)(=O)=O)c3-c3nn[nH]n3)cccc2s1 [Example 300, (R)—N1-(3-amino-2-hydroxypropyl)-4-(2-(aminomethyl)benzo[d]thiazol-4-yl)-3-(2H-tetrazol-5-yl)benzene-1,2-disulfonamide] | 1.00 | – | – | – | – | 318 | 70.3 | 0.7813 | 0.7813 | – | 1.563 | 1.563 | 1.563 | – | – | 67.8
NCCNS(=O)(=O)c1ccc(-c2cccn3ccnc23)c(-c2nn[nH]n2)c1S(N)(=O)=O [Example 361, N1-(2-aminoethyl)-4-(imidazo[1,2-a]pyridin-8-yl)-3-(2H-tetrazol-5-yl)benzene-1,2-disulfonamide] | 1.00 | – | – | – | – | 147 | 143 | 0.7813 | 0.7813 | – | 0.3906 | 1.563 | 0.7813 | – | – | 95.3
C[C@@H](CCN)NS(=O)(=O)c1ccc(-c2cccc3[nH]c(N)nc23)c(-c2nn[nH]n2)c1S(N)(=O)=O [Example 267, (S)-4-(2-amino-1H-benzo[d]imidazol-4-yl)-N1-(4-aminobutan-2-yl)-3-(2H-tetrazol-5-yl)benzene-1,2-disulfonamide] | 1.00 | – | – | – | 279 | 1630 | 179 | 0.7813 | 0.7813 | – | 0.7813 | 1.563 | 1.563 | – | – | –
Nc1nc2c(-c3ccc(S(=O)(=O)NCCO)c(S(N)(=O)=O)c3-c3nn[nH]n3)cccc2s1 [Example 144, 4-(2-aminobenzo[d]thiazol-4-yl)-N1-(2-hydroxyethyl)-3-(2H-tetrazol-5-yl)benzene-1,2-disulfonamide] | 1.00 | 12.5 | 12.5 | 3.125 | 162 | 288 | 89.8 | 3.125 | 3.125 | – | – | – | – | – | – | –
